Data set [1] relates to L. major (strain NIH S (MHOM/SN/74/Seidman)) promastigotes. The data set is described as follows: Antipromastigote resazurin assay. The format is cell-based, Leishmania major. The settings on record: for inhibition at 10 µM / IC50: Leishmania major; for inhibition at 10 µM: L. major strain IR‐173 (as headed) promastigotes, read-out: Antipromastigote growth inhibition (%); for IC50: promastigotes, maximum concentration 2 mM, ±standard deviation. (In general: Resazurin is reduced to fluorescent resorufin, in cell work by metabolically active cells.)

The test system of data set [2] is L. major intramacrophage amastigotes. The data set is described as follows: Intramacrophage antileishmanial growth inhibition assay. The data set is classed as cell-based, Leishmania major. The note with it: for inhibition at 10 µM: Leishmania major, L. major strain IR‐173 (as headed) intramacrophage amastigotes, read-out: Anti‐amastigote growth inhibition (%); for host cell and parasite death in L. major anti‐amastigote screening: 2 mM of compound, L. major only. The protocol: (§1) A modified resazurin assay[47, 48] and the two Leishmania strains were also used to assess the efficacy of synthesised compounds against intramacrophage parasites.
(§2) Human monocytic leukemia (THP‐1) cells were cultured in RPMI 1640 medium with L‐glutamine (Sigma Aldrich) supplemented with, 1 % penicillin/streptomycin solution (Lonza), 10 % fetal bovine serum (FBS; Thermofisher Scientific) and 2 g/L sodium bicarbonate (Sigma Aldrich). The cells were maintained in a humidified environment at 37 °C and 5 % CO2.
(§3) For the intramacrophage assay, a 500 000 cells/mL THP‐1 cell suspension was prepared, 25 ng/mL phorbol 12‐myristate 13‐acetate (PMA) added and the suspension seeded in 96 well plates (Nunc, Thermofisher Scientific) at 200 μL/well. Cell‐free growth medium was included as the blank. The plates were incubated for 48 hours in a humidified environment at 37 °C and 5 % CO2 to encourage the differentiation of the suspended cells to adherent macrophages.
(§4) To eliminate non‐adherent cells after the PMA treatment, the plates were carefully washed once with warm PBS. Then, a premade promastigote suspension ([…]) was added. The suspension consisted of stationary phase promastigotes in THP‐1 cell growth medium, with a multiplicity of infection (MOI) of 30 : 1. Parasite‐free medium was also added to selected THP‐1 cell‐containing wells to serve as parasite blank. The plates were thoroughly rinsed four times with warm PBS to get rid of extracellular parasites after being cultured for 24 hours to encourage macrophage infection. The cells were then treated with 160 μL of growth medium and 40 μL of either solvent (parasite blank and negative control with parasites) or 40 μL of compound solutions. For a dual‐point activity screening, 10 μM and 2 mM of compound were prepared in separate plates. Amphothericin B (10 μM) served as the standard antileishmanial drug. The plates were incubated for 72 hours in a humidified environment at 37 °C and 5 % CO2.
(§5) For the plates treated with 10 μM of compound, any serum and extracellular promastigotes that remained were carefully removed from the wells by rinsing with warm PBS. The wells were then treated with 20 μL of 0.05 % sodium dodecyl sulphate (SDS; Sigma Aldrich) in PBS for 30 sec to lyse the macrophages. Lysis was terminated with the addition of 180 μL promastigote growth medium with 10 % FBS. For the resazurin assay, 10 μL of resazurin solution (0.025 % in PBS) was added to each well and the plates were further incubated at 37 °C in for 72 hours in the dark to measure amastigote recovery to proliferative promastigotes.
Any remaining extracellular promastigotes were afterwards carefully removed from the wells by rinsing with warm PBS. The wells were then treated with 50 μL of resazurin solution (0.01 % in PBS) and the plates were further incubated at 37 °C for 4 hours in the dark to assess host cell viability.
(§6) A Thermofisher Scientific's GO Multiscan plate reader was used to measure absorbance at 570 nm and 600 nm. SkanIt 4.0 Research Edition software was used to perform the data analysis for every biological replicate. Background absorbance (600 nm) was subtracted from the 570 nm absorbance data and the mean absorbance was computed.
(§7) For the activity screening, the following formula was used to determine growth inhibition percentage: Growthinhibition%=100-[(ΔAbssample-ΔAbsblank)/(ΔAbsnegcontrol-ΔAbsblank)X100]

The next data set concerns Vero cells. Put plainly: Cytotoxicity resazurin assay. The format is cell-based. The settings on record: Chlorocebus sabaeus, 48 hours, ±standard deviation, maximum concentration 2 mM. As to the method:
The cytotoxicity of the synthesised compounds was evaluated using the resazurin assay. The assay involves live cells converting oxidized blue resazurin dye to pink, highly fluorescent resorufin through irreversible enzymatic reduction.[44] This non‐toxic reagent is a useful instrument for determining drug toxicity and cell growth.
Dulbecco's modified Eagle's medium (DMEM) with high glucose (Separations) supplemented with 1 % L‐glutamine, non‐essential amino acids, and penicillin‐streptomycin (Sigma Aldrich), and 10 % fetal bovine serum (Thermofisher Scientific) was used to cultivate Vero cells. The cells were kept at 37 °C and 5 % CO2 in a humidified environment. For the assay, 96 well plates were prepared by pipetting 100 μL of cell suspension (60 000 cells/mL) per well and incubating the plates for 24 hours. The cells were then treated with seven two‐fold concentration dilutions of: (1) 1 μM emetine dihydrochloride (Sigma Aldrich) solution (positive control); (2) 2 mM experimental compound solutions. Cell‐free growth medium was included as a blank. The treated plates were incubated for 48 hours.
To initiate the resazurin assay, 50 μL of sterile‐filtered resazurin sodium salt (Sigma Aldrich) solution (0.01 % in phosphate‐buffered saline (PBS)) was added to the prepared plates and then incubated for 2 hours. A Thermofisher Scientific's GO Multiscan plate reader was used to measure the absorbance at 570 and 600 nm. SkanIt 4.0 Research Edition software was used to perform the data analysis for every biological replicate. After subtracting background absorbance (600 nm) from the 570 nm absorbance data, the mean absorbance was computed, and the percentage of viable cells was estimated using the formula below: Cellviability%=(ΔAbssample-ΔAbsblank)/(ΔAbsnegcontrol-ΔAbsblank)X100
GraphPad Prism 5 was used to calculate the IC50 and Z‐score for each compound's biological replicate. The mean IC50 of the biological replicates and standard deviation (SD) was calculated to determine the final IC50 of each compound.

The subject of data set [3] is Leishmania donovani (strain 9515 (MHOM/IN/95/9515)) promastigotes. Put plainly: Antipromastigote resazurin assay. The data set is classed as cell-based. The note with it: for IC50 / inhibition at 10 µM: Leishmania donovani; for IC50: promastigotes, maximum concentration 2 mM, ±standard deviation, read-out: L. donovani 9515 antipromastigote IC50; for inhibition at 10 µM: L. donovani strain 9515 promastigotes, read-out: Antipromastigote growth inhibition (%). The protocol:
The antipromastigote activity of synthesised compounds was evaluated using a modified method of the resazurin assay[45, 46] against two Leishmania strains.
Leishmania donovani (strain 9515 (MHOM/IN/95/9515)) and L. major (strain NIH S (MHOM/SN/74/Seidman)) promastigotes were cultured in M199 with Hank's salts and 0.68 mM L‐glutamine (Sigma Aldrich) supplemented with 0.0005 % hemin, 0.0001 % biotin, 0.1 mM adenine (Sigma Aldrich), 10 % fetal bovine serum, 50 U/mL Penicillin/Streptomycin solution, 4.2 mM sodium bicarbonate and 25 mM Hepes buffer. The promastigotes were maintained at an adjusted pH of 7.3–7.4 growth medium at 26 °C. […] Amphothericin B (10 μM) served as the standard antileishmanial drug and parasite‐free growth medium was included as the blank. The plates were incubated for 48 hours at 26 °C in humidified environment.
Following the initial incubation, 50 μL of resazurin solution (0.01 % in PBS) was added to each well and the plates underwent further incubation at 26 °C for 24 hours in the dark. A Thermofisher Scientific's GO Multiscan plate reader was used to measure absorbance at 570 nm and 600 nm. SkanIt 4.0 Research Edition software was used to perform the data analysis for every biological replicate. Background absorbance (600 nm) was subtracted from the 570 nm absorbance data and the mean absorbance was computed. The cell viability and data analysis were performed as indicated in the cytotoxicity assay.

The subject of data set [4] is L. donovani strain 9515 intramacrophage amastigotes. Put plainly: Intramacrophage antileishmanial growth inhibition assay. The format is cell-based. The note with it: Leishmania donovani, read-out: Anti‐amastigote growth inhibition (%). The protocol:
as §1, §2, §3, §4, §5, §6, §7

For data set [5], the system named is L. donovani 1S promastigotes. Set-up: method as in PMID 33491807. The settings on record: read-out: L. donovani 1S promas. IC50; cited from earlier work.
Data set [6] has as its system L. donovani strain 1S amastigote. Set-up: method as in PMID 33491807. The settings on record: previous study; cited from earlier work.
The next data set concerns Vero. Further details: method as in PMID 33491807. The settings on record: cited from earlier work.

Where “and” joins values, the source holds several entries; their conditions need not be identical. Equal entries are not always repeated.

Take `O=S1(=O)c2ccccc2N=CN1CCO` [Compound 2, 2‐(2‐Hydroxyethyl)‐2H‐benzo[e][1,2,4]thiadiazine‐1,1‐dioxide]: the melting point (usually the temperature of the solid-liquid transition) lay in the range of 167 to 170 °C. Further, in [1], the “SI2: Selectivity index=IC50 Vero/L. major antipromastigote IC50” value was 0.70 and the inhibition (as a rule, the relative decrease from the control value, in per cent) at 10 µM stood at 0%. Besides, in data set [2], the inhibition at 10 µM is 0%. Besides, it took 752 ± 174 µM to reach half-maximal inhibition in the data set with Vero cells (IC50). In data set [3], the “SI1: Selectivity index=IC50 Vero/L. donovani 9515 antipromastigote IC50” value was found to be 0.90; the IC50 – broadly, the concentration that inhibits the measured activity by half – was determined as 839 ± 41.9 µM; the inhibition at 10 µM is 0%. Further, the inhibition at 10 µM in data set [4] turned out to be 0%.

For `CCOCCN1C=Nc2ccccc2S1(=O)=O` [Compound 6, 2‐(2‐Ethoxyethyl)‐2H‐benzo[e][1,2,4]thiadiazine‐1,1‐dioxide], the IC50 in data set [1] was found to be 586 ± 47 µM; in the data set with Vero cells it was 470 ± 225 µM; in data set [3] it was 333 ± 45.1 µM. For the same compound, the inhibition at 10 µM is 0% in [1], 0% in data set [2], 2% in [3] and 0% in data set [4].

For the compound `CCOCCOCCOCCN1C=Nc2ccccc2S1(=O)=O` [Compound 8, 2‐{2‐[2‐(2‐Ethoxyethoxy)ethoxy]ethyl}‐2H‐benzo[e][1,2,4]thiadiazine‐1,1‐dioxide], the IC50 in data set [1] is 909 ± 124 µM; in the data set with Vero cells, 922 ± 93.9 µM; in data set [3], 809 ± 20.2 µM. Besides, the inhibition at 10 µM in [1] was determined as 0%; in data set [2] it was 0%; in data set [3] it was 3%; in [4], 0%.

Compound `O=S1(=O)NC=Nc2ccccc21` [Compound 1, 2H‐Benzo[e][1,2,4]thiadiazine‐1,1‐dioxide] showed a melting point of 223 to 226 °C. For the same compound, in [1], the “SI2: Selectivity index=IC50 Vero/L. major antipromastigote IC50” value is 0.38, the IC50 amounted to 861 ± 46.5 µM and the inhibition at 10 µM amounted to 0%. Further, the IC50 in data set [5] was < 10 µM and 7.33 µM. For the same compound, the “activity against L. donovani strain 1S amastigote” value in data set [6] is reported as “sub‐micromolar activity”. The inhibition at 10 µM in [2] is 0%. Also, in the data set with Vero cells, the IC50 stood at 323 ± 215 µM. Besides, the half-inhibitory concentration (IC50) in the data set on Vero is more than 100 µM. For the same compound, in data set [3], the “SI1: Selectivity index=IC50 Vero/L. donovani 9515 antipromastigote IC50” value stood at 0.53, the IC50 stood at 612 ± 30.9 µM and the inhibition at 10 µM worked out at 10%. The inhibition at 10 µM in [4] was 0%.

`C#CCN1C=Nc2ccccc2S1(=O)=O` [Compound 14, 2‐(Prop‐2‐yn‐1‐yl)‐2H‐benzo[e][1,2,4]thiadiazine‐1,1‐dioxide]: in data set [1], the “SI2: Selectivity index=IC50 Vero/L. major antipromastigote IC50” value was 2.89, the IC50 worked out at 185 ± 22.1 µM and the inhibition at 10 µM stood at 23%. Further, in [2], the “host cell and parasite death in L. major anti‐amastigote screening” value was “killed both parasite and host cell”; the inhibition at 10 µM turned out to be 0%. For the same compound, half-maximal inhibition in the data set with Vero cells (IC50) was put at 535 ± 21.8 µM. In data set [3], the “SI1: Selectivity index=IC50 Vero/L. donovani 9515 antipromastigote IC50” value is recorded as 2.25, the IC50 amounted to 238 ± 14.5 µM and the inhibition at 10 µM was 1%. In addition, the inhibition at 10 µM in data set [4] amounted to 0%.

In turn, `O=S1(=O)c2ccccc2N=CN1CCOc1ccc(Br)cc1` [Compound 10, 2‐[2‐(4‐Bromophenoxy)ethyl]‐2H‐benzo[e][1,2,4]thiadiazine‐1,1‐dioxide] displayed a melting point of 217 to 220 °C. In addition, in data set [1], the “SI2: Selectivity index=IC50 Vero/L. major antipromastigote IC50” value stood at 0.47 and the inhibition at 10 µM amounted to 0%. For the same compound, the inhibition at 10 µM in data set [2] came to 0%. Moreover, the IC50 in the data set on Vero cells is 663 ± 24 µM. Also, in [3], the “SI1: Selectivity index=IC50 Vero/L. donovani 9515 antipromastigote IC50” value is reported as 0.73, the IC50 came to 906 ± 62.1 µM and the inhibition at 10 µM stood at 0%. Further, the inhibition at 10 µM in [4] came to 0%.

Take `COCCN1C=Nc2ccccc2S1(=O)=O` [Compound 3, 2‐(2‐Methoxyethyl)‐2H‐benzo[e][1,2,4]thiadiazine‐1,1‐dioxide]: the values for the half-inhibitory concentration (IC50) (in data set [1]; with Vero cells; in data set [3]) were 701 ± 40.8 µM, 502 ± 152 µM and 482 ± 7.57 µM, respectively. Also, the inhibition at 10 µM in data set [1] was found to be 0%; in data set [2], 0%; in data set [3] it was 2%; in data set [4] it was 0%.

Regarding `O=S1(=O)c2ccccc2N=CN1CCOc1ccc(Cl)cc1` [Compound 11, 2‐[2‐(4‐Chlorophenoxy)ethyl]‐2H‐benzo[e][1,2,4]thiadiazine‐1,1‐dioxide], in data set [1], the “SI2: Selectivity index=IC50 Vero/L. major antipromastigote IC50” value amounted to 2.49, the IC50 amounted to 300 ± 3.68 µM and the inhibition at 10 µM turned out to be 0%. For the same compound, in data set [2], the “host cell and parasite death in L. major anti‐amastigote screening” value was “killed both parasite and host cell”; the inhibition at 10 µM is 0%. The compound further registered an IC50 in the data set with Vero cells of 747 ± 188 µM. In addition, in data set [3], the “SI1: Selectivity index=IC50 Vero/L. donovani 9515 antipromastigote IC50” value came out at 2.57, the IC50 stood at 290 ± 21.4 µM and the inhibition at 10 µM was determined as 3%. In addition, the inhibition at 10 µM in data set [4] was 0%.

Values taken from paper PMC11741150, “Synthesis and In Vitro Antileishmanial Efficacy of Novel Ethylene Glycol Analogues of Benzothiadiazine‐1,1‐dioxide” (Chemistry & Biodiversity, 2024).
